Experimental findings from article PMC8162438, “Cancer cell-selective modulation of mitochondrial respiration and metabolism by potent organogold(III) dithiocarbamates” (Chemical Science, 2020) are described below.

The subject of the assay is MDA-MB-231. The experiment in a line: Seahorse XF96 mitochondria stress test (OCR), MDA-MB-231. In kind it is cell-based. An excerpt: With the previous biological data pointing towards metabolic changes, we sought to explore further the effect 2a had on redox metabolism. The ETC is a complicated biological system that is constantly changing in response to external stress in order to achieve redox homeostasis within the cell. With the DEG data alluding to involvement of ETC genes (Fig. 9A), we then decided to look in depth at the effect of complexes on these biological parameters. We next performed oxygen consumption rate (OCR) experiments by Seahorse 96XF to quantify the effect of 2a on mitochondrial bioenergetics or stress (MitoStress) (Fig. 9B and C).[87] A series of known inhibitors of the various parts of the ETC that allow for the measurement of specific parameters were used. […] ATP linked respiration was also calculated and found to be decreased by more than 80% at 3 μM treatment (Fig. 9F). […]
For the wells that were pre-treated with NAC, a stock solution of NAC in DMEM was added at a concentration of 10 mM for 2 h prior to the addition of 2a. […] The cells were then analyzed using FACS with the FITC channel […]
Mitochondrial Metabolism Analysis with Seahorse XF96 Analysis. […] The optimum conditions were determined to be 30,000 cells/well and an FCCP injection concentration of 0.6 µM. […]

For `C[N+](C)=C1[S][Au-2]2([S]1)[c]1ccccc1Cc1cccc[n+]12.F[P-](F)(F)(F)(F)F` (centres unmarked) [2a], where the note is “MDA-MB-231, 1 μM, within 50 minutes, compared to control”, the “Decrease of maximal OCR” value was “more than 25%”. Further, the “Decrease of basal OCR” value (MDA-MB-231, 3 μM, 17 minutes from injection) is listed as “more than 20%”.
